Measurements taken from patent publication US8129538B1, “Renin inhibitors” (Takeda Pharmaceutical Company Limited, priority 2007, dated 2012).

Molecular target: T1, Recombinant human renin (Homo sapiens, UniProt P00797)
T1 construct: isolate the active form (residues 67-406); made in house
T1 sequence (P00797 67-406): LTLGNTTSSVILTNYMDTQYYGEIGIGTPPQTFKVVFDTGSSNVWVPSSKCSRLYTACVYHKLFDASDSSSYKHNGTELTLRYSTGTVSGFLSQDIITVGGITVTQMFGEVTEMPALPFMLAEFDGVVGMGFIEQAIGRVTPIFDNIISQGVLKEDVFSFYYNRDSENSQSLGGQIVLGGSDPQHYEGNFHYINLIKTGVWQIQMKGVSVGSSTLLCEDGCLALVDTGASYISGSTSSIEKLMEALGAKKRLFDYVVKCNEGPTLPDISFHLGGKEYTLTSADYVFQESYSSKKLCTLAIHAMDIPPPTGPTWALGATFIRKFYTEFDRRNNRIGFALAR
Assay: In vitro enzymatic activity assay of renin inhibitors (fluorogenic peptide substrate)
Type: biochemical
Conditions: recombinant human renin 3 nM, substrate 1 μM, 37° C., pH 7.4, fluorescence; read-out: IC50 of Exemplified Compounds Against Renin
Text: Test compounds in varying concentrations may be reacted with recombinant human renin in the presence of substrate, e.g., QXL520-γ-Abu-Ile-His-Pro-Phe-His-Leu-Val-Ile-His-Thr-Lys (HiLyteFluo488)-Arg-OH (Anaspec, San Jose, Calif.). The reaction can be followed kinetically using fluorescence (excitation λ=485 nm; emission λ=538 nm) Inhibition constants (IC50) may be calculated by non-linear curve fitting of the compound concentrations and fluorescence intensities to the standard IC50 equation.
Solutions of test compounds in varying concentrations (≦2 mM final concentration) are prepared in dimethyl sulfoxide (DMSO) and then diluted into assay buffer comprising 50 mM Hepes, 1 mM EDTA, 1 mM DTT, 0.1 mg/mL BSA, 0.01% Brij35, pH 7.4. Alternatively, the assay can be performed with a high BSA concentration, wherein the buffer contains an additional 2% BSA.
Recombinant human renin (3 nM final concentration) is added to the dilutions and pre-incubated with the compounds for 10 minutes at 37° C. As described in Examples A-C above, human renin can be obtained by expressing preprorenin (residue 1-406) in mammalian cells, treating the prorenin (residues 24-406) contained in the culture supernatant with trypsin, and isolate the active form (residues 67-406). After pre-incubation, the reaction is initiated with 1 μM of substrate QXL520-γ-Abu-Ile-His-Pro-Phe-His-Leu-Val-Ile-His-Thr-Lys (HiLyteFluo488)-Arg-OH (Anaspec, San Jose, Calif.). The final DMSO in the assay is 5%. The total volume of the reaction mixture is 20 μL, which can be placed on Greiner 384-well small volume plates.
Renin activity may be determined via fluorescence (excitation λ=485 nm; emission λ=538 nm), e.g., on a Molecular Devices SPECTROmax GEMINI XPS. The fluorescence
intensity is determined upon the addition of substrate and determined again after incubation at 37° C. for one hour. The fluorescence intensity of a blank (no inhibition) using vehicle alone is also determined. Renin activity is linearly proportional to the change in fluorescence observed (final-initial).
The percent inhibition of renin at a given compound concentration is defined as: 100%×[1−(Fcompound/Fblank)] where Fcompound is the observed fluorescence at a given concentration of test compound and Fblank is the observed fluorescence in the presence of vehicle alone.
The pIC50 value (negative log of the molar concentration of the compound that produces 50% inhibition) of a test compound is calculated by non-linear least squares curve fitting of the equation: Percent Inhibition=100%/(1+(10−pIC50/10 log [I])) to percent inhibition versus compound concentration. The 50% inhibitory concentration (IC50) of a test compound is calculated by raising 10 to the negative pIC50 (10-pIC50).

**Q.** For `O=C(C1=C(c2cccc(-c3ccccc3)c2)CCNC1CO)N(Cc1cccc(Cl)c1Cl)C1CC1` (stereo not shown) [Compound 1, 4-(biphenyl-3-yl)-N-cyclopropyl-N-(2,3-dichlorobenzyl)-2-(hydroxymethyl)-1,2,5,6-tetrahydropyridine-3-carboxamide], which IC50 is on record?
**A.** > 1000 nM

**Q.** `O=C(C1=C(c2ccc(OCCOc3ccccc3Cl)cc2)CCNC1CO)N(Cc1cccc(Cl)c1Cl)C1CC1` (stereo not shown) [Compound 2, 4-(4-(2-(2-chlorophenoxy)ethoxy)phenyl)-N-cyclopropyl-N-(2,3-dichlorobenzyl)-2-(hydroxymethyl)-1,2,5,6-tetrahydropyridine-3-carboxamide] was tested. Which IC50 did it give?
**A.** > 1000 nM

**Q.** With `COCOC[C@H]1NCCC(c2cccc(-c3ccccc3)c2)=C1C(=O)N(Cc1cccc(Cl)c1Cl)C1CC1` [Compound 4, (S)-4-(biphenyl-3-yl)-N-cyclopropyl-N-(2,3-dichlorobenzyl)-2-((methoxymethoxy)methyl)-1,2,5,6-tetrahydropyridine-3-carboxamide] as the compound, how does the IC50 read?
**A.** 100 to 1000 nM

**Q.** Which IC50 does the source give for `COCOC[C@H]1NCCC(c2ccc(OCCOc3c(Cl)cccc3Cl)cc2)=C1C(=O)N(Cc1cccc(Cl)c1Cl)C1CC1` [Compound 5, (S)-N-cyclopropyl-N-(2,3-dichlorobenzyl)-4-(4-(2-(2,6-dichlorophenoxy)ethoxy)phenyl)-2-((methoxymethoxy)methyl)-1,2,5,6-tetrahydropyridine-3-carboxamide] here?
**A.** < 100 nM

**Q.** With `O=C(C1=C(c2ccc(OCCOc3c(Cl)cccc3Cl)cc2)CCN[C@@H]1CO)N(Cc1cccc(Cl)c1Cl)C1CC1` [Compound 6, (S)-N-cyclopropyl-N-(2,3-dichlorobenzyl)-4-(4-(2-(2,6-dichlorophenoxy)ethoxy)phenyl)-2-(hydroxymethyl)-1,2,5,6-tetrahydropyridine-3-carboxamide] as the compound, how does the IC50 read?
**A.** < 100 nM

**Q.** How did the IC50 turn out when `Cc1cccc(C)c1OCCOc1ccc(C2=C(C(=O)N(Cc3cccc(Cl)c3Cl)C3CC3)[C@@H](CO)NCC2)cc1` [Compound 7, (S)-N-cyclopropyl-N-(2,3-dichlorobenzyl)-4-(4-(2-(2,6-dimethylphenoxy)ethoxy)phenyl)-2-(hydroxymethyl)-1,2,5,6-tetrahydropyridine-3-carboxamide] was run?
**A.** < 100 nM

**Q.** How did the IC50 turn out when `COCOC[C@H]1NCCC(c2ccc(OCCOc3c(C)cccc3C)cc2)=C1C(=O)N(Cc1cccc(Cl)c1Cl)C1CC1` [Compound 8, (S)-N-cyclopropyl-N-(2,3-dichlorobenzyl)-4-(4-(2-(2,6-dimethylphenoxy)ethoxy)phenyl)-2-((methoxymethoxy)methyl)-1,2,5,6-tetrahydropyridine-3-carboxamide] was run?
**A.** < 100 nM

**Q.** `Cc1cc(Cl)c(OCCOc2ccc(C3=C(C(=O)N(Cc4cccc(Cl)c4Cl)C4CC4)[C@@H](CO)NCC3)cc2)c(Cl)c1` [Compound 9, (S)-N-cyclopropyl-4-(4-(2-(2,6-dichloro-4-methylphenoxy)ethoxy)phenyl)-N-(2,3-dichlorobenzyl)-2-(hydroxymethyl)-1,2,5,6-tetrahydropyridine-3-carboxamide] was tested. Which IC50 did it give?
**A.** < 100 nM

**Q.** With `COCOC[C@H]1NCCC(c2ccc(OCCOc3c(Cl)cc(C)cc3Cl)cc2)=C1C(=O)N(Cc1cccc(Cl)c1Cl)C1CC1` [Compound 10, (S)-N-cyclopropyl-4-(4-(2-(2,6-dichloro-4-methylphenoxy)ethoxy)phenyl)-N-(2,3-dichlorobenzyl)-2-((methoxymethoxy)methyl)-1,2,5,6-tetrahydropyridine-3-carboxamide] as the compound, how does the IC50 read?
**A.** < 100 nM

**Q.** Which IC50 does the source give for `O=C(C1=C(c2ccc(OCCOc3c(F)ccc(F)c3Cl)cc2)CCN[C@@H]1CO)N(Cc1cccc(Cl)c1Cl)C1CC1` [Compound 11, (S)-4-(4-(2-(2-chloro-3,6-difluorophenoxy)ethoxy)phenyl)-N-cyclopropyl-N-(2,3-dichlorobenzyl)-2-(hydroxymethyl)-1,2,5,6-tetrahydropyridine-3-carboxamide] here?
**A.** < 100 nM

**Q.** Which IC50 does the source give for `O=C(C1=C(c2ccc(O)cc2)CCN[C@@H]1CO)N(Cc1cccc(Cl)c1Cl)C1CC1` [Compound 12, (S)-N-cyclopropyl-N-(2,3-dichlorobenzyl)-2-(hydroxymethyl)-4-(4-hydroxyphenyl)-1,2,5,6-tetrahydropyridine-3-carboxamide] here?
**A.** > 1000 nM

**Q.** How did the IC50 turn out when `COc1ccc(C2=C(C(=O)N(Cc3cccc(Cl)c3Cl)C3CC3)[C@@H](CO)NCC2)cc1` [Compound 13, (S)-N-cyclopropyl-N-(2,3-dichlorobenzyl)-2-(hydroxymethyl)-4-(4-methoxyphenyl)-1,2,5,6-tetrahydropyridine-3-carboxamide] was run?
**A.** > 1000 nM

**Q.** Which IC50 does the source give for `NC[C@H]1NCCC(c2ccc(OCCOc3c(Cl)cccc3Cl)cc2)=C1C(=O)N(Cc1cccc(Cl)c1Cl)C1CC1` [Compound 14, (S)-2-(aminomethyl)-N-cyclopropyl-N-(2,3-dichlorobenzyl)-4-(4-(2-(2,6-dichlorophenoxy)ethoxy)phenyl)-1,2,5,6-tetrahydropyridine-3-carboxamide] here?
**A.** 100 to 1000 nM
